Experimental data reported in ChEMBL document CHEMBL3227984, “5-Substituted uracil arabinonucleosides as potential antiviral agents” (J Med Chem, 1979).
Activity calls are given as the source filed them. No cut-off for these calls is given here.

Each molecule was assayed on Vaccinia virus (assay: Antiviral activity against Vaccinia virus infected in human skin fibroblasts assessed as inhibition of virus-induced cytopathogenicity). Conditions: Orthopoxvirus vaccinia.
Type: functional, organism-based
Cc1cn([C@@H]2O[C@H](CO)[C@@H](O)[C@@H]2O)c(=O)[nH]c1=O was tested, and the inhibition was “Active”.
With N#Cc1cn([C@@H]2O[C@H](CO)[C@@H](O)[C@@H]2O)c(=O)[nH]c1=O the inhibition was “Active”.
For O=c1[nH]c(=O)n([C@@H]2O[C@H](CO)[C@@H](O)[C@@H]2O)cc1O, the inhibition was “Active”.
In the case of O=c1ccn([C@@H]2O[C@H](CO)[C@@H](O)[C@@H]2O)c(=O)[nH]1 [ARAURIDINE], the inhibition is reported as “Active”.
With O=c1[nH]c(=O)n([C@@H]2O[C@H](CO)[C@@H](O)[C@@H]2O)cc1[N+](=O)[O-] the inhibition was “Active”.
